Molecules are shown by their SMILES. Like-named read-outs stand apart in the source and are kept apart here.

Data set [1] deals with voltage sensitive sodium channels. Particulars: in vitro studies; cited from earlier work.
The conditions of data set [2]: cited from earlier work.
Data set [3] in a line: Solid form after heating, analyzed by PXRD. The format is physicochemical. As to the method: The present invention also provides for processes that convert one form of oxcarbazepine into another form of oxcarbazepine. Form A may be obtained by heating oxcarbazepine solvate Form E at elevated temperatures between 40° C. and 80° C., preferably 60° C., for a period of 2 hours to 10 hours, preferably 4 hours. One skilled in the art may appreciate that Form E may transform to Form A under different conditions, and that the optimal conditions may be discovered with routine experimentation. The present invention also provides a process for transforming Form B to Form A. At about ambient temperature, Form B transforms to Form C. One skilled in the art would appreciate that such a transition may also occur at temperatures above and below ambient temperature, and that by routine experimentation the boundary of the temperature range may be determined. At higher temperatures, between 60° C. and 120° C., preferably 60° C., a transformation from form B to form A occurs after a few hours, as determined by the temperature. The temperature at which Form B transforms to Form A rather than Form C may be determined by routine experimentation. One skilled in the art may appreciate that the rate and extent of the transformation varies with the conditions and the amount of time under which the transformation occurs. […] FTIR spectra were recorded using Nicolet Avatar 360 spectrometer. […]

A short description of data set [4]: Solid form after slurry in protic solvent, analyzed by PXRD. The format is physicochemical. How it is done:
One skilled in the art may appreciate that other protic solvents may be used and the optimal conditions may be determined through routine experimentation. The characterization of crystalline phases were performed using Phillips PW 1710 Diffractometer. Thermograviometric analysis (TGA) was produced using Mettler TG50 equipped with Mettler TC11 TA processor. Differential Scanning calorimetry (DSC) was performed using Mettler DSC 30 apparatus. FTIR spectra were recorded using Nicolet Avatar 360 spectrometer. Oxcarbazepine Form B was suspended in ethanol for 24 hours. The product was analyzed by PXRD and determined to be Form A. Oxcarbazepine Form C was suspended in ethanol for 24 hours. The product was analyzed by PXRD and determined to be Form A. Oxcarbazepine Form D was suspended in water for 24 hours. The product is analyzed by PXRD and is determined to be Form A.

Data set [5] in a line: Solid form after storage at ambient temperature, analyzed by PXRD. In kind it is physicochemical. Particulars: stored at ambient temperature (about 20 to 30° C.; gradual, may occur over several months). How it is done: The present invention also provides a process for transforming Form B to Form C. […] The transformation is gradual and prolonged, and may occur over several months. One skilled in the art may appreciate that the optimal conditions and time for transformation may be discovered through routine experimentation. The characterization of crystalline phases were performed using Phillips PW 1710 Diffractometer. Thermograviometric analysis (TGA) was produced using Mettler TG50 equipped with Mettler TC11 TA processor. Differential Scanning calorimetry (DSC) was performed using Mettler DSC 30 apparatus. FTIR spectra were recorded using Nicolet Avatar 360 spectrometer. Oxcarbazepine Form B was stored at an ambient temperature. The resulting material was analyzed by PXRD and found to be Form C.

Consider `NC(=O)N1c2ccccc2CC(O)c2ccccc21` (centres unmarked) [10-hydroxy metabolite of oxcarbazepine], for which the “effect on voltage sensitive sodium channels” value in data set [1] is reported as “blocks voltage sensitive sodium channels”. For the compound `NC(=O)N1c2ccccc2CC(=O)c2ccccc21` [Oxcarbazepine Form A, 10-oxo-10,11-dihydro-5H-dibenz[b, f]azepine-5-carboxamide], the solubility result in data set [2] (solvents ethanol, ether and water) is listed as “practically insoluble”; in data set [2] (solvents such as chloroform, dichloromethane, acetone and methanol), “slightly soluble”. In the case of `NC(=O)N1c2ccccc2CC(=O)c2ccccc21` [Oxcarbazepine Form B, 10-oxo-10,11-dihydro-5H-dibenz[b, f]azepine-5-carboxamide], the “crystal form found by PXRD after heating (solid-state stability)” value in data set [3] (heated to about 60° C., maintained for five hours) was “Form A”. Moreover, the “crystal form found by PXRD after suspension in solvent (solid-state stability)” value in data set [4] (suspended in ethanol for 24 hours) is recorded as “Form A”. Also, in data set [5], the “crystal form found by PXRD after storage (solid-state stability)” value is “Form C”. Consider `NC(=O)N1c2ccccc2CC(=O)c2ccccc21` [Oxcarbazepine Form D, 10-oxo-10,11-dihydro-5H-dibenz[b, f]azepine-5-carboxamide], for which the “crystal form found by PXRD after suspension in solvent (solid-state stability)” value in data set [4] (suspended in water for 24 hours) is recorded as “Form A”. Turning to `NC(=O)N1c2ccccc2CC(=O)c2ccccc21` [Oxcarbazepine solvate Form E, 10-oxo-10,11-dihydro-5H-dibenz[b, f]azepine-5-carboxamide], the “crystal form found by PXRD after heating (solid-state stability)” value in data set [3] (heated to 60° C., maintained for 4 hours) was “Form A”.

Values taken from patent publication US20030004154A1, “New crystal forms of oxcarbazepine and processes for their preparation” (priority 2001, published 2003).
